This note sets out measurements from ChEMBL document CHEMBL1201862, “PubChem BioAssay data set” (2004).

A word on the IC50: it is the midpoint of a concentration-inhibition curve. What is called EC50 is the concentration needed to bring the measured effect to its halfway point. Usually CC50 stands for the concentration at which the toxic effect on the cells reaches its halfway point. A word on the AC50: it is the concentration giving half of the maximal activity seen.

Calls of active or inactive are those of the source. Where only a bound is given, the exact number is not on record here.

Assay [1] can be described thus: protection from phage-mediated lysis, alamar blue read-out – E. coli UTI89, K1F phage, bacterial capsule biogenesis inhibitors (AID 488966). In kind it is functional. (In general: The colour change of resazurin is a common sign of viable cells or microbes.)
In assay [2] the target is Voltage-dependent T-type calcium channel subunit alpha-1H (Homo sapiens, UniProt O95180). Kind of assay: human CACNA1H calcium influx blockade – cell-based, synthetic library set 1, calcium flux (AID 493022). The class given is functional.
Another assay has as its system Streptococcus. The assay can be described thus: GAS UMAA2166 growth inhibition – luminescence, BacTiterGlo, counter-screen for streptokinase expression inhibitor project, dose response (AID 1915).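 Further: potency for reduction of bacterial viability or growth.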 The class given is functional, organism-based.
In the next assay the target is Beta-galactosidase (Escherichia coli, UniProt Q8VNN2). Kind of assay: detection-enzyme interference by beta-gal modulators – biochemical, E. coli enzyme, set 3, artefact control for CCR6 antagonist project, dose response (AID 504712). In kind it is functional.
Assay [3] has as its target C-C chemokine receptor type 6 (Homo sapiens, UniProt P51684). Kind of assay: antagonism of CCR6 beta-arrestin recruitment – cell-based, luminescent beta-arrestin readout, dose response (AID 504728). In kind it is functional. For orientation: Recruitment of arrestin is a read-out of receptor activation apart from second messengers.
The nature of assay [4]: Trypanosoma cruzi growth suppression in host cells – NIH3T3 host cells, beta-gal luminescence, confirmation (AID 2044).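 Further: intracellular parasites grown in NIH/3T3 mouse fibroblasts as host cells; luminescent beta-galactosidase reporter signal from transgenic T. cruzi replicating inside host cells; inhibitors lower the luminescence signal.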 In kind it is functional, cell-based.
For a further assay, the system named is Vero. The assay can be described thus: cells. In kind it is functional. To be noted: Chlorocebus sabaeus.
The subject of assay [5] is Streptococcus sp. 'group A'. Kind of assay: Streptococcus pyogenes SK(-)GAS viability under kanamycin – luminescence, BacTiterGlo, confirmation, counter-screen for streptokinase expression inhibitor project, dose response (AID 1900). The class given is functional, organism-based. A general note: The purpose of a counterscreen is to sort out artefacts and off-target activity.

Assay [6] concerns the target T1, SUMO-activating enzyme (Homo sapiens, UniProt Q9UBT2). The assay can be described thus: blockers of SAE1/SAE2–UBC9 SUMO transfer – biochemical, HTRF, uHTS, primary screen (AID 2006). The class given is protein-complex assay.
The target of the next assay is T2, Aminopeptidase N (Plasmodium falciparum FcB1/Columbia, UniProt O96935).
T2 sequence (O96935 whole entry): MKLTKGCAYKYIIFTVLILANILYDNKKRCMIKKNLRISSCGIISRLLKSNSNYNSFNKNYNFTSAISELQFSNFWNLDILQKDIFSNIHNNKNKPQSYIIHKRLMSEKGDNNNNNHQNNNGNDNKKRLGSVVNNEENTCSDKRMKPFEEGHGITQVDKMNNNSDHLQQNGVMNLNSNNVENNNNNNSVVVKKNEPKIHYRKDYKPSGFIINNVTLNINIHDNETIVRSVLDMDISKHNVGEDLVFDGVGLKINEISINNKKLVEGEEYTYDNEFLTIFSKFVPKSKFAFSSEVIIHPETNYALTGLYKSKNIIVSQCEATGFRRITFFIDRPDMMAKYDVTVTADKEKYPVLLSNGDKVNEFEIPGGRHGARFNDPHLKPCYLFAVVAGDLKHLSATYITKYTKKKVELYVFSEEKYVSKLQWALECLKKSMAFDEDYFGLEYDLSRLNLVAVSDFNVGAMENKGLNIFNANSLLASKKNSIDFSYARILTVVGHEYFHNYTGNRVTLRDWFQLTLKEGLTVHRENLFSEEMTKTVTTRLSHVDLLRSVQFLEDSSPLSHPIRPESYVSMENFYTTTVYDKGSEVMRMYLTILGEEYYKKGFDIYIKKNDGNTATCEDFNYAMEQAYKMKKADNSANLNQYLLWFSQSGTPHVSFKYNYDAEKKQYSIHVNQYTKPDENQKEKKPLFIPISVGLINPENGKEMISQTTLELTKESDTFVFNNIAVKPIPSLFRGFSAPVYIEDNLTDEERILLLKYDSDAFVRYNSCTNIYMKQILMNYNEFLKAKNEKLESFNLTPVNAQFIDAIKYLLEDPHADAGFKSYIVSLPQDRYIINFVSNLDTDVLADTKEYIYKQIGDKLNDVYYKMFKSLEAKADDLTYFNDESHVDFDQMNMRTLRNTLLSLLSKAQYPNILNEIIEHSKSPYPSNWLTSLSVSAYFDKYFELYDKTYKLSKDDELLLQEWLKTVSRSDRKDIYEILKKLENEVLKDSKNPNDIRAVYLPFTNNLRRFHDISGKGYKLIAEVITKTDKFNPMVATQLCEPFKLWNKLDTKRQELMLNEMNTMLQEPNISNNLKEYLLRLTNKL
The assay can be described thus: malaria alanyl aminopeptidase activity blockers – biochemical, fluorogenic H-Leu-NHMec substrate, 1536-well (AID 1445). Also noted: species or system Plasmodium falciparum 3D7, 3D7.

The next assay addresses Nonstructural protein 1 (Influenza A virus, UniProt Q194T2). The class given is functional, Influenza A virus (A/California/07/2009(H1N1)).
For assay [7], the target named is T3, Zinc finger protein mex-5 (Caenorhabditis elegans, UniProt Q9XUB2).
T3 sequence (Q9XUB2 whole entry): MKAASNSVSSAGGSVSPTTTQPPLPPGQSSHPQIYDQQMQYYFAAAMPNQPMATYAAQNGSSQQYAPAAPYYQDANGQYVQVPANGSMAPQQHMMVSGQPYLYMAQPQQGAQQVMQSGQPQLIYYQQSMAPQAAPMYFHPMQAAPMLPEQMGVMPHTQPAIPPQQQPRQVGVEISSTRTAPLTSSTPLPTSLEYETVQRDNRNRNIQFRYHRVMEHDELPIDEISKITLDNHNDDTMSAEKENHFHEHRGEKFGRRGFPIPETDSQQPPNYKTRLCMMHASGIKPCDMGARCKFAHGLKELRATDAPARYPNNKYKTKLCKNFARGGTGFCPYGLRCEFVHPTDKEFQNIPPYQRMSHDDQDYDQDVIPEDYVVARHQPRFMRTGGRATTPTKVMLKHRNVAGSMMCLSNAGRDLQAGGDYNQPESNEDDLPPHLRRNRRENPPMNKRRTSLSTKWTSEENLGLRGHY
Kind of assay: potency of MEX-5 RNA-binding blockers – biochemical, C. elegans, fluorescence polarization, dose response (AID 1960).

The target in assay [8] is T4, RNA-binding protein pos-1 (Caenorhabditis elegans, UniProt G5EF15).
T4 sequence (G5EF15 whole entry): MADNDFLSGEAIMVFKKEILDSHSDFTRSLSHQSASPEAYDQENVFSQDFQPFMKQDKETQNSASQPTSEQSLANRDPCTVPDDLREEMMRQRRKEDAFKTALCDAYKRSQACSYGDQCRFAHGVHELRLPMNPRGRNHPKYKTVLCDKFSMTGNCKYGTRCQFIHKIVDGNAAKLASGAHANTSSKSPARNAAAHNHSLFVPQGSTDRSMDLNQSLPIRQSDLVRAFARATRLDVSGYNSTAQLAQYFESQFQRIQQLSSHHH
The assay can be described thus: disruptors of C. elegans POS-1 RNA interaction – biochemical, fluorescence polarization, dose response (AID 1964).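 Further: purified POS-1 fused to maltose binding protein made in E. coli; potency of compounds blocking POS-1 binding to fluorescent RNA.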

Assay [9] concerns the target T1, SUMO-activating enzyme. Kind of assay: blockers of UBC9-mediated SUMO conjugation – biochemical, AlphaScreen, SUMOylation inhibitor project, confirmation (AID 2018). In kind it is functional.
The target in assay [10] is T5, Heat shock factor protein 1 (Mus musculus, UniProt P38532).
T5 sequence (P38532 whole entry): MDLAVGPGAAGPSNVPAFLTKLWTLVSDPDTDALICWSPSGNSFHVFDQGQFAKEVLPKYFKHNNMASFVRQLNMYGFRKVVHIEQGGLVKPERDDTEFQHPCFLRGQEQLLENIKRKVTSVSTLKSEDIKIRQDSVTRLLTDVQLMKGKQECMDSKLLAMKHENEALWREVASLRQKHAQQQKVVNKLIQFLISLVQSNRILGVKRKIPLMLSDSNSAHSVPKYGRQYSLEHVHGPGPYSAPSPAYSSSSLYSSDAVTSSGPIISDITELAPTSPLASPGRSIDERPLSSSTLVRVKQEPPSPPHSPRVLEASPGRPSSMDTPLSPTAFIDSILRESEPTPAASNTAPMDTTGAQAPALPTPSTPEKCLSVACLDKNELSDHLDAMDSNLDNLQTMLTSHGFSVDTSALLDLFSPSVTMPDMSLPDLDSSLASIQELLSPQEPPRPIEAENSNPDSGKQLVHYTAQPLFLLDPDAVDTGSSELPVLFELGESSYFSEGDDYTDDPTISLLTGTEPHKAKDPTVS
Kind of assay: decrease of HSF1-responsive luciferase luminescence – cell-based, NIH3T3, dose retest, confirmation (AID 2382).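 Further: NIH3T3 fibroblasts with HSF1-driven luciferase reporter stressed by proteasome inhibitor MG132; luminescence from HSF1-driven luciferase expression after 8 hours of MG132 stress.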 The class given is functional.

The nature of assay [11]: Luminescence Cell-Based Dose Response HTS to Identify Inhibitors of 5'UTR Stem-Loop Driven Prion Protein mRNA Translation in H4 Neuroglioblastoma Cells. [Related pubchem assays: 1827 (Project Summary), 1813 (Primary HTS)]. In kind it is functional.
Assay [12] can be described thus: luciferase reporter signal suppression in cells – H4 neuroglioma cells, luminescence, dose response (AID 1990). In kind it is functional, cell-based.
Assay [13] can be described thus: cells. In kind it is functional, cell-based.
A short description of assay [14]: HepG2 cell cytotoxicity, dose response, cytotoxicity control for non-replicating M. tuberculosis project (AID 489018). The class given is functional. To be noted: Mycobacterium tuberculosis.
The test system of a further assay is H9c2. The assay can be described thus: cells. The class given is functional, cell-based. Conditions: Rattus norvegicus, H9c2, Myocardium.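 Further: confirmatory concentration-response retest of ultra-high-throughput screening hits for modulation of myocardial damage; cell death induced by hydrogen peroxide oxidative stress; compound pretreatment for 60 min then peroxide exposure for 2 h; potency is for protecting the cells against peroxide damage rather than for killing them.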
Assay [15] in a line: cells. The class given is functional.
Assay [16] is described as follows: non-specific 3'UTR reporter inhibition in Clone20-Shn3RL – cell-based, Renilla luciferase, cherry-picked, counter-screen for Shn3 inhibitor project, dose response (AID 624133). In kind it is functional.
Assay [17] in a line: NIH3T3 cell viability loss – ATP luminescence, mouse fibroblasts, counter-screen, dose response (AID 2010).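 Further: cells exposed to compound for about 90 hours before reading.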 In kind it is functional, cell-based.
Assay [18] is described as follows: loss of viability in HepG2 cells – cell-based, CellTiter-Glo, cherry-picked, cytotoxicity control for Shn3 inhibitor project, dose response (AID 624134). In kind it is functional.
Assay [19] in a line: THP-1 cell cytotoxicity, dose response, cytotoxicity control for non-replicating M. tuberculosis project (AID 489025). In kind it is functional.
Assay [20] can be described thus: reduction of Shn3 3'UTR-driven luciferase in osteoblasts – cell-based, Clone20 osteoblasts, firefly luciferase, cherry-picked, dose response (AID 624132).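 Further: firefly luciferase luminescence from reporter carrying the Shn3 3'UTR in osteoblasts.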 The class given is functional.
Assay [21] in a line: alpha-synuclein stem-loop luciferase translation blockers – H4 neuroglioma cells, luminescence, confirmation (AID 1988). The class given is functional, cell-based.
Assay [22] is described as follows: cells. The class given is functional, cell-based. This is another data set of the same source.
Assay [23] can be described thus: Vero E6 cell cytotoxicity, dose response, cytotoxicity control for non-replicating M. tuberculosis project, secondary assay (AID 492998). In kind it is functional, VeroE6. To be noted: Vero C1008.

T1 sequence (Q9UBE0 whole entry): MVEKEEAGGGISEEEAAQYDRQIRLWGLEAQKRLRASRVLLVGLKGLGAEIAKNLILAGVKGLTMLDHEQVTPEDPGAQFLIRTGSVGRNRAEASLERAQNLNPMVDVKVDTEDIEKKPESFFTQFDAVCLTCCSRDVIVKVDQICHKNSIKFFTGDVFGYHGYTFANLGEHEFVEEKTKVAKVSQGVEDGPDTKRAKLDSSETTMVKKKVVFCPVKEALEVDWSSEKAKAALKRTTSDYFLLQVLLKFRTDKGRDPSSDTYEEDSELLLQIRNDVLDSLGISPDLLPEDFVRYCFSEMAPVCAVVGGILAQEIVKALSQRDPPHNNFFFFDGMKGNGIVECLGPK
T1 sequence (Q9UBT2 whole entry): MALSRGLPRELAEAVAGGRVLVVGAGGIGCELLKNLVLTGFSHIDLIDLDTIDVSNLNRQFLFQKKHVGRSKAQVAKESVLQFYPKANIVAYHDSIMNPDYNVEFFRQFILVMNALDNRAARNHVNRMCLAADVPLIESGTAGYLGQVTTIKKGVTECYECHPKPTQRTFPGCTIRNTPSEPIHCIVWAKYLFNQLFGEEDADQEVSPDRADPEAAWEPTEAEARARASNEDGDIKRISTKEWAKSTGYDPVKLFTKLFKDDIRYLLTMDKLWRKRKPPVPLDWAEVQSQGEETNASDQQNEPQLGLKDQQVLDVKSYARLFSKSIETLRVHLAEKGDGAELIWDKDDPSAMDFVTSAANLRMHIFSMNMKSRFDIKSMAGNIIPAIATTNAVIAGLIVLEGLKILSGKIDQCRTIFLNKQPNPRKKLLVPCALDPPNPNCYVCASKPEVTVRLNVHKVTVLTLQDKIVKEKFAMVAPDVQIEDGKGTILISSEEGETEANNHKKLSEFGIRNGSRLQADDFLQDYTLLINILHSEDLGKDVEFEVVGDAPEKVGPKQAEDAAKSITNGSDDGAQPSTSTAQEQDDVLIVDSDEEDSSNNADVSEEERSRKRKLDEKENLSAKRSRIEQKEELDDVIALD
Chain of Nonstructural protein 1 (Q194T2 whole entry): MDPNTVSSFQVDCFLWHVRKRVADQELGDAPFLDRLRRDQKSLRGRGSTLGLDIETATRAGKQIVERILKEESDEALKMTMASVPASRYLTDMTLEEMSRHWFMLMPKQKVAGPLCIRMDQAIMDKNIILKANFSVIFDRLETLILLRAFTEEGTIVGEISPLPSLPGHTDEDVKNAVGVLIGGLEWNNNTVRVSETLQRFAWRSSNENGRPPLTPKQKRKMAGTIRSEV
Chain of C-C chemokine receptor type 6 (P51684 whole entry): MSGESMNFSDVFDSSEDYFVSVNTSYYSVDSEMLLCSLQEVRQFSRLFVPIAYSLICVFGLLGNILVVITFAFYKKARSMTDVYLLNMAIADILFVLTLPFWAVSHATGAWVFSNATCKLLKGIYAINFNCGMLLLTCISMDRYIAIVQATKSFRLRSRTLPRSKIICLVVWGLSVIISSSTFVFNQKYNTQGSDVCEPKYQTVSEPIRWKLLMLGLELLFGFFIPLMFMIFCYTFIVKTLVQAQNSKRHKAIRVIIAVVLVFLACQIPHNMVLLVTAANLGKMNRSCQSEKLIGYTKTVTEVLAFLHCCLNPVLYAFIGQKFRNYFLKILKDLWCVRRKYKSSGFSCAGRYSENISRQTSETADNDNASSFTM
Chain of Voltage-dependent T-type calcium channel subunit alpha-1H (O95180 whole entry): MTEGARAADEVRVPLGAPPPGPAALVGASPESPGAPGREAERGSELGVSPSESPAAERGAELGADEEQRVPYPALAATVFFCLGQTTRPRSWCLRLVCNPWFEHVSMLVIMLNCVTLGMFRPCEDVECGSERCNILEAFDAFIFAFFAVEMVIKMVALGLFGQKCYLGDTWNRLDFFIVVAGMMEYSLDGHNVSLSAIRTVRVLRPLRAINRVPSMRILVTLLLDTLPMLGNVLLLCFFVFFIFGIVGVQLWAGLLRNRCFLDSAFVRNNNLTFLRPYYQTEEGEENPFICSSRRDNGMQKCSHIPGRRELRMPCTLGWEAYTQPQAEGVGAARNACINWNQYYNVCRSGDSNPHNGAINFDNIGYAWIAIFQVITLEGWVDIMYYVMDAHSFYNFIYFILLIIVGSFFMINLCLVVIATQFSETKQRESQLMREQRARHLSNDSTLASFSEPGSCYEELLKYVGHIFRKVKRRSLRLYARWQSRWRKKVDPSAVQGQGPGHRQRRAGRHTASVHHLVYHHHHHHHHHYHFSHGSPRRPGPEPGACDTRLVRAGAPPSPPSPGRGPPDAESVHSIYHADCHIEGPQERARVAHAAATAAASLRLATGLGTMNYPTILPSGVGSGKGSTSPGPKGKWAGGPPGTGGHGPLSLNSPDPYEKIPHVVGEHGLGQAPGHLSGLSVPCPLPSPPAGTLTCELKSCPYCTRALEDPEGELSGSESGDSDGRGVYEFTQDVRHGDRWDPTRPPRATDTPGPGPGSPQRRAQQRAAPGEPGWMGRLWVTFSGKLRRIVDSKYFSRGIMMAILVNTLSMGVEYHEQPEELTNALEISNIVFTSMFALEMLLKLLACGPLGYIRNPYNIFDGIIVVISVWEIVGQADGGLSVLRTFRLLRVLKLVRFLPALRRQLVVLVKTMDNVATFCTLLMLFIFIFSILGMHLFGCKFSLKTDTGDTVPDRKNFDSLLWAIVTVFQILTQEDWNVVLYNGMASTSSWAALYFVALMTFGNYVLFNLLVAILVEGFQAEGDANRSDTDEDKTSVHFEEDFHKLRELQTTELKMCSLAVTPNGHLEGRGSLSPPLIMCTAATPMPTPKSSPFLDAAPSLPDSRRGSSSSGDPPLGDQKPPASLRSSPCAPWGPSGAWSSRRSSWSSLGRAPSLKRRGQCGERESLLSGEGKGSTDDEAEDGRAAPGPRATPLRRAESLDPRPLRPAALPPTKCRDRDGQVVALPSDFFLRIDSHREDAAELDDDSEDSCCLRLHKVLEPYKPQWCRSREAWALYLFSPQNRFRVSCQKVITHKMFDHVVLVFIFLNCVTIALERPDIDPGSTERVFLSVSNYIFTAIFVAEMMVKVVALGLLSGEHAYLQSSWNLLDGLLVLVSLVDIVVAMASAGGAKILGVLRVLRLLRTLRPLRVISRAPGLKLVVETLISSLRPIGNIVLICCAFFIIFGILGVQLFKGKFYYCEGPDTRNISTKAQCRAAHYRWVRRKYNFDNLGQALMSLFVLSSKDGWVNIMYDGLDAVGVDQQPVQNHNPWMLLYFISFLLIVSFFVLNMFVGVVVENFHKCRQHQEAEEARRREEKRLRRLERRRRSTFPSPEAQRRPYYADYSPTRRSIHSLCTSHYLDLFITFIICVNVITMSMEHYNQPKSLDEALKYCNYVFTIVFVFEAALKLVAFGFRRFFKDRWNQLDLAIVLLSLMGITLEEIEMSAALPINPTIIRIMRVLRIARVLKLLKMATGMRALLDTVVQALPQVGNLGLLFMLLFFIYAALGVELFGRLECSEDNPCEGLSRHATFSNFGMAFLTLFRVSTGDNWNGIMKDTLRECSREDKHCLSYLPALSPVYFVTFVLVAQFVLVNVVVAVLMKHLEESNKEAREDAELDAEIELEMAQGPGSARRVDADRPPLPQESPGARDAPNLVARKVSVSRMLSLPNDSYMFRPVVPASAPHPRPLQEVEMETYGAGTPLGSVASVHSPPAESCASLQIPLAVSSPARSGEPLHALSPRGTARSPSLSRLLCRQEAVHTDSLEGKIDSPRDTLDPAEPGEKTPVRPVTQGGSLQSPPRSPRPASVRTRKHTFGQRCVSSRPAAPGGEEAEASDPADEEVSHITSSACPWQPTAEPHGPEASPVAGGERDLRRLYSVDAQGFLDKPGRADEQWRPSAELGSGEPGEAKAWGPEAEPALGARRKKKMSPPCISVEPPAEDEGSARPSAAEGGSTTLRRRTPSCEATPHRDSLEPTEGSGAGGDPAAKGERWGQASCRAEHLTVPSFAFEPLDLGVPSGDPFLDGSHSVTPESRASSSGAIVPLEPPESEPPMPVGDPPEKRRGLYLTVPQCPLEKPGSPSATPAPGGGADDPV
Chain of Beta-galactosidase (Q8VNN2 whole entry): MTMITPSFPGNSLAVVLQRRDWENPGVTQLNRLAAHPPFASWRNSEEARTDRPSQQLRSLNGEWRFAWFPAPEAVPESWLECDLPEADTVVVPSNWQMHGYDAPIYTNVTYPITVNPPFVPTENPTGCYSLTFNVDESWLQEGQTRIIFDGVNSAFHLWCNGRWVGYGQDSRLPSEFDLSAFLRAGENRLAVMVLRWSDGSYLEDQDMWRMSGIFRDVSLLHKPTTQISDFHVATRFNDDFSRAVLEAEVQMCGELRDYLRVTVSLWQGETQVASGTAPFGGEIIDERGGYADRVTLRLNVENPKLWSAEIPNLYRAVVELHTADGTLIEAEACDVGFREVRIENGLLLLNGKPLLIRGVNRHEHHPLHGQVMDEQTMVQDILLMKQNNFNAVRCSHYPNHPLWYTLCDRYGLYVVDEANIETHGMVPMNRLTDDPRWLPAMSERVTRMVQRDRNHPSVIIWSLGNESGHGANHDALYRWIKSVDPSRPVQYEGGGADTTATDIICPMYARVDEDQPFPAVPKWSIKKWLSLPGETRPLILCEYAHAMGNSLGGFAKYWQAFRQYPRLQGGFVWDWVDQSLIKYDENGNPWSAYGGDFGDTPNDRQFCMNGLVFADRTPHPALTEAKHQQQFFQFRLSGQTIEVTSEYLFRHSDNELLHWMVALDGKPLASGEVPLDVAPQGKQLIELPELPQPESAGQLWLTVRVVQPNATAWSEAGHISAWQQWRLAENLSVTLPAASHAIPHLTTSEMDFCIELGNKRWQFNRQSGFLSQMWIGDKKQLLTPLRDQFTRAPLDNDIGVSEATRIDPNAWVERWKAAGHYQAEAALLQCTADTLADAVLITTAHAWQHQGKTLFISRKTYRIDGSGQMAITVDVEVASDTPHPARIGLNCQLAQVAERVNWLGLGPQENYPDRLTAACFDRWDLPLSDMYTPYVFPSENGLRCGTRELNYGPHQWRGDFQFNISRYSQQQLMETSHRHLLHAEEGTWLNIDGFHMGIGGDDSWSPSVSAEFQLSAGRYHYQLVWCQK

`Clc1ccc2c(NCCNC3CCCCC3)ccnc2c1`: the concentration for half-maximal inhibition (IC50) in assay [1] is > 150 µM (active).
In the case of `O=C(COc1ccc(F)cc1Cl)Nc1nnc(-c2ccc3c(c2)OCCO3)o1`, the concentration for a half-maximal effect (EC50) in assay [2] is 2.6 µM (active).
With `CCc1ccccc1OCC(=O)Nc1nc(-c2cccnc2)cs1`, the results for the EC50 (in the assay with Streptococcus; in [4]; in assay [5]) were 3.28 µM (active), 1.14 µM (active) and 0.428 µM (active), respectively. Besides, the IC50 (on Beta-galactosidase; in [3]) was > 66.6 µM (inactive) in each case. For the same compound, the half-maximal cytotoxic concentration (CC50) in the assay on Vero is > 25 µM (active).
With `Cc1ccccc1N1C(=O)/C(=C/NNC(=O)c2ccccc2O)C(=O)NC1=S`, the IC50 was 42.4 µM (active) at SUMO-activating enzyme [6], 11.5 µM (active) at Aminopeptidase N, 13.4 µM (active) at Nonstructural protein 1 and 25.7 µM (active) on SUMO-activating enzyme [9]. The values for the half-maximal effective concentration (EC50) in assay [7], in assay [8] and in assay [10] were 23.5 µM (active), 21.2 µM (active) and 30.8 µM (active), respectively.
As to `Cc1cc(C)n(-c2ccc3cccc(NS(C)(=O)=O)c3n2)n1`, the concentration for a half-maximal effect (EC50) in assay [11] was 7.99 µM (active); in assay [12], 0.137 µM (active); in the assay “cells [13]”, > 350 µM (not active); in assay [17], 0.68 µM (active); in assay [21], 0.159 µM (active); in assay [4] it was 1.07 µM (active). Moreover, the EC50 in “cells [22]” is given as > 350 µM (not active). Also, the half-maximal cytotoxic concentration (CC50) in [14] is 19.3 µM (active); in assay [19], 12.5 µM (active); in [23], 3.8 µM (active). Besides, the IC50 in the assay on H9c2 was > 79 µM (inactive); in “cells [15]” it was > 25 µM (active). The results for the half-maximal activity concentration (AC50) in assay [16], in [18] and in assay [20] were 0.759 µM (active), 6.2 µM (active) and 1.32 µM (active), respectively.
